Measured values as given in patent US8574563B2 (Bristol-Myers Squibb Company, priority 2006, dated 2013).

System: HCV 1b-377-neo replicon cells
Assay: HCV replicon assay, HCV 1b-377-neo replicon cells (1b FRET)
Type: cell-based, Hepatitis C virus genotype 1b
Settings: HCV 1b-377-neo replicon cells; HCV 1b genotype; read-out: EC50 range against HCV 1b (Table 2, Range)
In short: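 Compounds tested in HCV genotype 1b-377-neo replicon cells with a FRET read-out. Cells resistant to a reference NS5A inhibitor through a Y2065H NS5A mutation were run alongside wild-type cells.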

SMILES	EC50
CC[C@H](NC(=O)OC)C(=O)N1CCC[C@H]1c1ncc(-c2ccc(-c3ccc(-c4cnc([C@@H]5CCCN5C(=O)[C@H](CC)NC(=O)OC)[nH]4)cc3)cc2)[nH]1 [Example M21, dimethyl (4,4′-biphenyldiylbis(1H-imidazole-5,2-diyl(2S)-2,1-pyrroldinediyl((2S)-1-oxo-1,2-butanediyl)))biscarbamate]	1 to 99 nM

Same assay, conditions: Hepatitis C virus, HCV 1b-377-neo replicon cells; HCV 1b genotype; read-out: EC50 range against HCV 1b (Table 2, Range)

SMILES	EC50
COCC[C@H](NC(=O)OC)C(=O)N1CCC[C@H]1c1ncc(-c2ccc(-c3ccc(-c4cnc([C@@H]5CCCN5C(=O)[C@H]5CCC[C@@H]5NC(=O)OC)[nH]4)cc3)cc2)[nH]1 [cj-122, methyl ((1S,2S)-2-(((2S)-2-(5-(4′-(2-((2S)-1-(N-(methoxycarbonyl)-O-methyl-L-homoseryl)-2-pyrrolidinyl)-1H-imidazol-5-yl)-4-biphenylyl)-1H-imidazol-2-yl)-1-pyrrolidinyl)carbonyl)cyclopentyl)carbamate]	0.001 to 0.999 nM
CCN(CC)[C@@H](C(=O)N1CCC[C@H]1c1ncc(-c2ccc(-c3ccc(-c4cnc([C@@H]5CCCN5C(=O)[C@H](NC(=O)OC)c5ccccc5)[nH]4)c(F)c3)cc2)[nH]1)c1ccccc1 [Example D37, methyl ((1R)-2-((2S)-2-(5-(4′-(2-((2S)-1-((2R)-2-(diethylamino)-2-phenylacelyl)-2-pyrrolidinyl)-1H-imidazol-5-yl)-3-fluoro-4-biphenylyl)-1H-imidazol-2-yl)-1-pyrrolidinyl)-2-oxo-1-phenylethyl)carbamate]	0.001 to 0.999 nM
COC(=O)N[C@@H](CC(=O)N1CCC[C@H]1c1ncc(-c2ccc(-c3ccc(-c4cnc([C@@H]5CCCN5C(=O)C[C@@H](Cc5ccsc5)NC(=O)OC)[nH]4)cc3)cc2)[nH]1)Cc1ccsc1 [cj-137, dimethyl (4,4′-biphenyldiylbis(1H-imidazole-5,2-diyl(2S)-2,1-pyrrolidinediyl((2R)-4-oxo-1-(3-thienyl)-4,2-butanediyl)))biscarbamate]	1 to 99 nM
COC(=O)N[C@H](C(=O)N1CCC[C@H]1c1ncc(-c2cnc(-c3ccc(-c4[nH]c([C@@H]5CCCN5C(=O)[C@@H](NC(=O)OC)C(C)C)nc4C(F)(F)F)cc3)nc2)[nH]1)C(C)C [Example J48, methyl ((1S)-1-(((2S)-2-(5-(2-(4-(2-((2S)-1-((2S)-2-((methoxycarbonyl)amino)-3-methylbutanoyl)-2-pyrrolidinyl)-4-(trifluoromethyl)-1H-imidazol-5-yl)phenyl)-5-pyrimidinyl)-1H-imidazol-2-yl)-1-pyrrolidinyl)carbonyl)-2-methylpropyl)carbamate]	0.001 to 0.999 nM
COC(=O)N[C@@H](C(=O)N1CCC[C@H]1c1ncc(-c2ccc(-c3ccc(-c4cnc([C@@H]5CCCN5C(=O)[C@H](NC(=O)OC)C5CC5)[nH]4)cc3)cc2)[nH]1)C1CC1 [Example M22, dimethyl (4,4′-biphenyldiylbis(1H-imidazole-5,2-diyl(2S)-2,1-pyrrolidinediyl((1R)-1-cyclopropyl-2-oxo-2,1-ethanediyl)))biscarbamate]	1000 to 10000 nM
CN[C@@H](C)C(=O)N1CCC[C@H]1c1ncc(-c2ccc(-c3ccc(-c4cnc([C@@H]5CCCN5C(=O)[C@H](C)NC)[nH]4)cc3)cc2)[nH]1 [LS6, (2S,2′S)-1,1′-(4,4′-biphenyldiylbis(1H-imidazole-5,2-diyl(2S)-2,1-pyrrolidinediyl))bis(N-methyl-1-oxo-2-propanamine)]	100 to 999 nM
O=C([C@@H]1CCCO1)N1CCC[C@H]1c1ncc(-c2ccc(-c3ccc(-c4cnc([C@@H]5CCCN5C(=O)[C@@H](c5ccccc5)N5CCOCC5)[nH]4)cc3)cc2)[nH]1 [Example 105, 4-((1R)-2-oxo-1-phenyl-2-((2S)-2-(5-(4′-(2-((2S)-1-((2S)-tetrahydro-2-furanylcarbonyl)-2-pyrrolidinyl)-1H-imidazol-5-yl)-4-biphenylyl)-1H-imidazol-2-yl)-1-pyrrolidinyl)ethyl)morpholine]	0.001 to 0.999 nM
C=CCCOC(=O)N[C@H](C(=O)N1CCC[C@H]1c1ncc(-c2ccc(-c3ccc(-c4cnc([C@@H]5CCCN5C(=O)[C@@H](NC(=O)OCCC=C)C(C)C)[nH]4)cc3)cc2)[nH]1)C(C)C [LS16, 3-buten-1-yl ((1S)-1-(((2S)-2-(5-(4′-(2-((2S)-1-((2S)-2-(((3-buten-1-yloxy)carbonyl)amino)-3-methylbutanoyl)-2-pyrrolidinyl)-1H-imidazol-5-yl)-4-biphenylyl)-1H-imidazol-2-yl)-1-pyrrolidinyl)carbonyl)-2-methylpropyl)carbamate]	1 to 99 nM
CN(C)[C@@H](C(=O)N1CCC[C@H]1c1ncc(-c2cnc(-c3cnc(-c4cnc([C@@H]5CCCN5C(=O)[C@@H](c5ccccc5)N(C)C)[nH]4)cn3)cn2)[nH]1)c1ccccc1 [Example 153c-5, (1R,1′R)-2,2′-(2,2′-bipyrazine-5,5′-diylbis(1H-imidazole-5,2-diyl(2S)-2,1-pyrrolidinediyl))bis(N,N-dimethyl-2-oxo-1-phenylethanamine)]	1 to 99 nM
COC(=O)N[C@H](C(=O)N1CCC[C@H]1c1ncc(-c2ccc(-c3ccc(-c4cnc([C@@H]5CCCN5C(=O)[C@@H](NC(=O)OC)C5CC5)[nH]4)cc3)cc2)[nH]1)C(C)C [Example M77, methyl ((1S)-1-(((2S)-2-(5-(4′-(2-((2S)-1-((2S)-2-cyclopropyl-2-((methoxycarbonyl)amino)acetyl)-2-pyrrolidinyl)-1H-imidazol-5-yl)-4-biphenylyl)-1H-imidazol-2-yl)-1-pyrrolidinyl)carbonyl)-2-methylpropyl)carbamate]	1 to 99 nM
COC(=O)N[C@@H](C(=O)N1CCC[C@H]1c1ncc(-c2ccc(-c3ccc(-c4cnc([C@@H]5CCCN5C(=O)c5ccc(N(C)C)cc5)[nH]4)cc3)cc2)[nH]1)c1ccccc1 [Example 84-33, methyl ((1R)-2-((2S)-2-(5-(4′-(2-((2S)-1-(4-(dimethylamino)benzoyl)-2-pyrrolidinyl)-1H-imidazol-5-yl)-4-biphenylyl)-1H-imidazol-2-yl)-1-pyrrolidinyl)-2-oxo-1-phenylethyl)carbamate]	0.001 to 0.999 nM
Cc1cc(CC(=O)N2CCC[C@H]2c2ncc(-c3ccc(-c4ccc(-c5cnc([C@@H]6CCCN6C(=O)[C@@H](c6ccccc6)N(C)C)[nH]5)cc4)cc3)[nH]2)n[nH]1 [Example 94-19, (1R)-N,N-dimethyl-2-((2S)-2-(5-(4′-(2-((2S)-1-((5-methyl-1H-pyrazol-3-yl)acetyl)-2-pyrrolidinyl)-1H-imidazol-5-yl)-4-biphenylyl)-1H-imidazol-2-yl)-1-pyrrolidinyl)-2-oxo-1-phenylethanamine]	0.001 to 0.999 nM
CCN(CC)[C@@H](C(=O)N1CCC[C@H]1c1ncc(-c2ccc(-c3ccc(-c4cnc([C@@H]5CCCN5C(=O)C[C@H](C)NC(=O)OC)[nH]4)cc3)cc2)[nH]1)c1ccccc1 [cj-51, methyl ((1S)-3-((2S)-2-(5-(4′-(2-((2S)-1-((2R)-2-(diethylamino)-2-phenylacetyl)-2-pyrrolidinyl)-1H-imidazol-5-yl)-4-biphenylyl)-1H-imidazol-2-yl)-1-pyrrolidinyl)-1-methyl-3-oxopropyl)carbamate]	0.001 to 0.999 nM
O=C(Nc1cccnc1)N[C@@H](C(=O)N1CCC[C@H]1c1ncc(-c2ccc(-c3ccc(-c4cnc([C@@H]5CCCN5C(=O)[C@H](NC(=O)Nc5cccnc5)c5ccccc5)[nH]4)cc3)cc2)[nH]1)c1ccccc1 [Example 25-8, N,N″-(4,4′-biphenyldiylbis(1H-imidazole-5,2-diyl(2S)-2,1-pyrrolidinediyl((1R)-2-oxo-1-phenyl-2,1-ethanediyl)))bis(3-(3-pyridinyl)urea)]	0.001 to 0.999 nM
O=C([C@@H](c1ccccc1)N1CCCCC1)N1CCC[C@H]1c1ncc(-c2ccc(-c3ccc(-c4cnc([C@@H]5CCCN5C(=O)C5(c6ccccc6)CC5)[nH]4)cc3)cc2)[nH]1 [Example 107-22, 1-((1R)-2-oxo-1-phenyl-2-((2S)-2-(5-(4′-(2-((2S)-1-((1-phenylcyclopropyl)carbonyl)-2-pyrrolidinyl)-1H-imidazol-5-yl)-4-biphenylyl)-1H-imidazol-2-yl)-1-pyrrolidinyl)ethyl)piperidine]	0.001 to 0.999 nM
COC(=O)N[C@@H](C(=O)N1CCC[C@H]1c1ncc(-c2ccc(-c3ccc(-c4cnc([C@@H]5CCCN5C(=O)CC5CCCCC5)[nH]4)cc3)cc2)[nH]1)c1ccccc1 [Example 84-75, methyl ((1R)-2-((2S)-2-(5-(4′-(2-((2S)-1-(cyclohexylacetyl)-2-pyrrolidinyl)-1H-imidazol-5-yl)-4-biphenylyl)-1H-imidazol-2-yl)-1-pyrrolidinyl)-2-oxo-1-phenylethyl)carbamate]	1 to 99 nM
CC[C@H](C(=O)N1CCC[C@H]1c1ncc(-c2ccc(-c3ccc(-c4cnc([C@@H]5CCCN5C(=O)[C@H](NC(=O)OC)c5ccccc5)[nH]4)cc3)cc2)[nH]1)N(CC)CC [Example M66x, methyl ((1R)-2-((2S)-2-(5-(4′-(2-((2S)-1-((2R)-2-(diethylamino)butanoyl)-2-pyrrolidinyl)-1H-imidazol-5-yl)-4-biphenylyl)-1H-imidazol-2-yl)-1-pyrrolidinyl)-2-oxo-1-phenylethyl)carbamate]	1 to 99 nM
C[C@@H](c1ncc(-c2ccc(-c3ccc(-c4cnc([C@@H]5CCCN5C(=O)[C@@H](c5ccccc5)N(C)C)[nH]4)cc3)cc2)[nH]1)N(C)C(=O)[C@@H](c1ccccc1)N(C)C [Example 24-18-5, (2R)-2-(dimethylamino)-N-((1S)-1-(5-(4′-(2-((2S)-1-((2R)-2-(dimethylamino)-2-phenylacetyl)-2-pyrrolidinyl)-1H-imidazol-5-yl)-4-biphenylyl)-1H-imidazol-2-yl)ethyl)-N-methyl-2-phenylacetamide]	0.001 to 0.999 nM
COC(=O)N[C@@H](C(=O)N1CCC[C@H]1c1ncc(-c2ccc(-c3ccc(-c4cnc([C@@H]5CCCN5C(=O)[C@@H](c5ccccc5)N5CCCC5)[nH]4)cc3)cc2)[nH]1)c1ccccc1 [Example 100, methyl ((1R)-2-oxo-1-phenyl-2-((2S)-2-(5-(4′-(2-((2S)-1-((2R)-2-phenyl-2-(1-pyrrolidinyl)acetyl)-2-pyrrolidinyl)-1H-imidazol-5-yl)-4-biphenylyl)-1H-imidazol-2-yl)-1-pyrrolidinyl)ethyl)carbamate]	0.001 to 0.999 nM
